Some test systems named below: BT-549; MCF7; CAKI-1; ACHN; HCC 2998; HOP-92; HT-29; SK-MEL-28; NCI-H460; RPMI-8226; IGROV-1; SK-MEL-2; RXF 393; HOP-62; SF-539; LOX IMVI; UO-31; DU-145; HL-60; MOLT-4.
Experiment in all cases: growth of human tumour cells (NCI), 48 h

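Results reflect a 48-hour exposure of cells in 96-well plates to compound at five concentrations. The concentration for 50% growth inhibition is given as GI50.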 The source made the active and inactive calls. Cut-off read from the data, not from the text of the source: active = GI50 up to about 1.1 µM and inactive = higher.

This note sets out measurements from ChEMBL document CHEMBL1201862, “PubChem BioAssay data set” (2004).

Regarding `COC(=O)C12CCC(C(=O)OC)(Cc3c(c4ccccc4n3S(=O)(=O)c3ccccc3)C1)C2=O` (stereo unspecified), the GI50 was > 100 µM (inactive) with BT-549; 63.8 µM (inactive) in the experiment on MCF7; > 62.4 µM (inactive) in the experiment on CAKI-1; > 64.1 µM (inactive) in the experiment on ACHN; > 76.9 µM (inactive) in the experiment on HCC 2998; 1 µM (active) in the experiment with HOP-92. In addition, the GI50 in the experiment with HT-29 is > 46.3 µM (inactive); in the experiment on SK-MEL-28, > 100 µM (inactive); in the experiment with NCI-H460, > 67 µM (inactive); with RPMI-8226, > 100 µM (inactive); in the experiment on IGROV-1, > 26.7 µM (inactive); with SK-MEL-2, > 100 µM (inactive). Also, the GI50 with RXF 393 is 1.61 µM (inactive); in the experiment on HOP-62, > 100 µM (inactive); in the experiment on SF-539 it was > 40.6 µM (inactive); in the experiment on LOX IMVI it was > 59.3 µM (inactive); in the experiment with UO-31, > 100 µM (inactive); with DU-145, > 100 µM (inactive).

Turning to `O=c1c2cc(S(=O)(=O)Nc3c(Cl)cccc3Cl)ccc2ncn1NS(=O)(=O)c1ccc2ccccc2c1`, the GI50 in the experiment on BT-549 was 22.3 µM (inactive); with MCF7, > 62.5 µM (inactive); in the experiment with CAKI-1, 25.9 µM (inactive); in the experiment on ACHN it was > 62.5 µM (inactive); in the experiment with HL-60, 20.2 µM (inactive); in the experiment on HCC 2998, 24.4 µM (inactive). Besides, the GI50 in the experiment with HOP-92 was 19.6 µM (inactive); in the experiment on HT-29 it was 16.4 µM (inactive); in the experiment on SK-MEL-28, > 62.5 µM (inactive); in the experiment with NCI-H460, 42.2 µM (inactive); with RPMI-8226 it was 28.8 µM (inactive); with MOLT-4, 30.3 µM (inactive). Besides, the GI50 with IGROV-1 is 8.67 µM (inactive); with SK-MEL-2, 20 µM (inactive); with HOP-62, 13 µM (inactive); with SF-539, > 62.5 µM (inactive); in the experiment on LOX IMVI it was 25.4 µM (inactive); in the experiment on UO-31 it was 10.9 µM (inactive). Besides, the GI50 with DU-145 was 42.9 µM (inactive).

`CCOC(=O)c1ccc(N2C(=S)N(C(=O)c3ccccc3)C(=N/c3ccccc3)/C2=N\c2ccccc2)cc1`: the GI50 in the experiment with BT-549 was 30.5 µM (inactive); in the experiment on MCF7 it was 55.3 µM (inactive); in the experiment on CAKI-1, 27.6 µM (inactive); in the experiment on ACHN, 37.8 µM (inactive); in the experiment with HCC 2998, > 100 µM (inactive); in the experiment with HOP-92, 26.4 µM (inactive). The GI50 is > 100 µM (inactive) in the experiment with HT-29; > 100 µM (inactive) in the experiment with SK-MEL-28; > 100 µM (inactive) in the experiment with NCI-H460; > 100 µM (inactive) with RPMI-8226; > 10 µM (inactive) with MOLT-4; 49.5 µM (inactive) with IGROV-1. The GI50 was 40.6 µM (inactive) in the experiment with SK-MEL-2; > 10 µM (inactive) with RXF 393; 19.7 µM (inactive) in the experiment on HOP-62; 63.2 µM (inactive) in the experiment on SF-539; 56.9 µM (inactive) with UO-31; 92.9 µM (inactive) in the experiment on DU-145.

For the compound `Oc1ccc2ccccc2c1CN(Cc1c(O)ccc2ccccc12)C1CCCCC1`, the GI50 was 19.8 µM (inactive) in the experiment on BT-549; 15.5 µM (inactive) in the experiment with MCF7; 16.6 µM (inactive) in the experiment with CAKI-1; 18.3 µM (inactive) with ACHN; 14.6 µM (inactive) in the experiment on HCC 2998; 18 µM (inactive) in the experiment with HOP-92. In addition, the GI50 was 21.6 µM (inactive) in the experiment on HT-29; 22.8 µM (inactive) with SK-MEL-28; 20 µM (inactive) in the experiment on NCI-H460; 25.1 µM (inactive) in the experiment on RPMI-8226; 16.6 µM (inactive) with MOLT-4; 11.8 µM (inactive) in the experiment on IGROV-1. Moreover, the GI50 with SK-MEL-2 was 23.3 µM (inactive); in the experiment on RXF 393, 18.2 µM (inactive); in the experiment on HOP-62 it was 29.7 µM (inactive); in the experiment with SF-539, 16 µM (inactive); in the experiment with LOX IMVI it was 15 µM (inactive); in the experiment on UO-31 it was 17.1 µM (inactive). In the experiment with DU-145, the GI50 was 20.3 µM (inactive).

For the compound `NC1=Nc2ncccc2C(=O)NN1`, the GI50 with BT-549 was > 10 µM (inactive); in the experiment with MCF7, > 10 µM (inactive); in the experiment with ACHN it was > 10 µM (inactive); in the experiment with HL-60, > 10 µM (inactive); with HCC 2998, 8.89 µM (inactive); in the experiment on HOP-92, > 10 µM (inactive). The GI50 in the experiment with HT-29, with SK-MEL-28, in the experiment on NCI-H460, in the experiment with RPMI-8226, in the experiment on MOLT-4 and with IGROV-1 was > 10 µM (inactive) in each case. Besides, the GI50 with SK-MEL-2, with RXF 393, in the experiment on HOP-62, in the experiment with SF-539, in the experiment on LOX IMVI and in the experiment on UO-31 was > 10 µM (inactive) throughout. Also, the GI50 with DU-145 was > 10 µM (inactive).

As for `O=C(O)CC(NC(=O)CP(=O)(O)O)C(=O)O` (stereo unspecified), the GI50 in the experiment with BT-549 was 3210 µM (inactive); in the experiment with MCF7, 381 µM (inactive); with ACHN, 711 µM (inactive); with HL-60 it was 283 µM (inactive); in the experiment on HCC 2998 it was 7930 µM (inactive); in the experiment on HOP-92, 424 µM (inactive). The GI50 in the experiment on HT-29 is 185 µM (inactive); with NCI-H460, 25.4 µM (inactive); in the experiment with RPMI-8226, 244 µM (inactive); in the experiment with MOLT-4, 238 µM (inactive); with IGROV-1 it was 335 µM (inactive); in the experiment on SK-MEL-2, 2470 µM (inactive). The GI50 in the experiment on RXF 393 was 249 µM (inactive); in the experiment on HOP-62, 313 µM (inactive); in the experiment on LOX IMVI it was 52.5 µM (inactive); with UO-31 it was 690 µM (inactive); in the experiment on DU-145 it was 933 µM (inactive).

For `Cc1ccc(S(=O)(=O)N[C@@H](Cc2ccccc2)C(=O)CCl)cc1` [TPCK], the GI50 in the experiment on BT-549 is 11.7 µM (inactive); with MCF7, 10.5 µM (inactive); in the experiment on ACHN, 16.5 µM (inactive); in the experiment with HL-60, 4.66 µM (inactive); with HCC 2998, 13.9 µM (inactive); in the experiment with HOP-92 it was 13.6 µM (inactive). The GI50 in the experiment with HT-29 was 14.9 µM (inactive); with SK-MEL-28 it was 18.6 µM (inactive); in the experiment on NCI-H460, 15.5 µM (inactive); in the experiment with IGROV-1 it was 14.9 µM (inactive); in the experiment on SK-MEL-2 it was 12.9 µM (inactive); in the experiment on RXF 393, 1.38 µM (inactive). The GI50 in the experiment with HOP-62 was 17.3 µM (inactive); in the experiment with SF-539 it was 16.5 µM (inactive); with LOX IMVI it was 7.08 µM (inactive); with UO-31, 14.1 µM (inactive); with DU-145, 17.7 µM (inactive).

With `CCCCc1c2c(nc3c1CCC/C3=C\c1ccccc1)C(=O)C(CN(C)C)CC2` (stereo unspecified), the GI50 in the experiment on BT-549 is 4.32 µM (inactive); in the experiment with MCF7, 3.37 µM (inactive); in the experiment on ACHN, 15.9 µM (inactive); in the experiment on HL-60, 2.67 µM (inactive); with HCC 2998, 28 µM (inactive); in the experiment on HOP-92 it was 16.6 µM (inactive). Besides, the GI50 in the experiment on HT-29 is 12.4 µM (inactive); in the experiment with SK-MEL-28 it was 14.8 µM (inactive); in the experiment with NCI-H460 it was 17.3 µM (inactive); with RPMI-8226, 4.17 µM (inactive); in the experiment on MOLT-4, 2.86 µM (inactive); with IGROV-1 it was 18.3 µM (inactive). In addition, the GI50 in the experiment on SK-MEL-2 is 20.2 µM (inactive); in the experiment with RXF 393, 16.3 µM (inactive); in the experiment with HOP-62, 16.5 µM (inactive); in the experiment on SF-539 it was 20.7 µM (inactive); in the experiment on LOX IMVI, 16.2 µM (inactive); with UO-31 it was 18.9 µM (inactive). In addition, the GI50 in the experiment with DU-145 was 15.6 µM (inactive).
